Test results taken from US20260152724A1, “SMALL INTESTINE EPITHELIUM-LIKE CELLS AND PRODUCTION METHOD THEREOF” (OSAKA UNIVERSITY, priority 2022, published 2026).
Like-named read-outs stand apart in the source and are kept apart here.

Columns and labels:
[1] = test system: definitive endoderm cells; test: Induction of differentiation from definitive endoderm cells into intestinal progenitor cells, marker gene expression by qRT-PCR (Example 1); format: cell-based, human; details: 4 days
Excerpt: This Example examined a differentiation-inducing action in a culture system containing each concentration of retinoic acid or a GSK3β inhibitor, which was known to be important in differentiation from definitive endoderm. To induce differentiation from definitive endoderm cells into intestinal progenitor cells, the medium B shown in Reference Example 2 was used as a basal medium.
Then, RNAs were recovered and analyzed for gene expression levels of an intestinal progenitor cell marker CDX2, a hepatic progenitor cell marker AFP, and a pancreatic progenitor cell marker PDX1 by quantitative RT-PCR (qRT-PCR). The quantitative RT-PCR was performed according to a common method. Total RNAS were recovered and CDNAS were synthesized. Complementary DNAs (cDNAs) were subjected to qRT-PCR with Fast SYBR Green Master Mix (Applied Biosystems) and quantification with StepOnePlus Real time PCR system (Applied Biosystems). A glyceraldehyde 3-phosphate dehydrogenase (GAPDH) gene was used as an internal standard gene. In addition, each gene expression level of DMSO-treated groups, which were controls, was set to 1.0. Data was shown with n=3, mean±standard deviation, but n=2 for each LY (10 nM and 30 nM). A detection limit was represented by N.D.

[2] = test system: intestinal progenitor cells; test: MEK inhibitor in differentiation from intestinal progenitor cells into ELCs, gene expression by qRT-PCR (Example 3); format: cell-based, human; details: PD 3 μM in medium C for 10 days, PD(+) versus PD(−); Conditions 2 and 3
Method: This Example investigated the action of a MEK inhibitor in a stage of inducing differentiation from intestinal progenitor cells into enterocyte-like cells (ELCs). PD0325901 (MedChemExpress LLC) was used as the MEK inhibitor. PD0325901 is sometimes abbreviated as PD in this Example and Examples described below. In a step from definitive endoderm cells to intestinal progenitor cells, culture e was performed under Conditions 2 and 3 shown in Table 3 in Example 2 according to the protocol illustrated in FIG. 3(1). […] Thus, the cells were induced to differentiate into enterocyte-like cells (ELCs). Subsequently, RNAs were recovered by the same procedure as in Example 1, and analyzed for each gene expression level of VIL1, CYP3A4, and MDR1 by qRT-PCR by the same method as in Example 2. Each gene expression level in an adult small intestine was set to 1.0. Data was shown with n=3, mean±standard deviation.

CYP3A4 [3] = test: Elimination of a humoral factor from medium K in ELC monolayer culture, CYP3A4 activity (Example 9)
Method: (§1) Further, CYP3A4 activity was checked. The CYP3A4 activity was measured with P450-Glo™ CYP3A4 Assay Kits (Promega Corporation). […] The CYP3A4 activity was corrected by the amount of a protein per well measured with BCA Protein Assay Kit (Thermo Fisher Scientific Inc.).
This Example investigated an influence of a humoral factor in ELC monolayer culture. […] In this Example, culture was performed with addition of the medium to only an upper stage A in a cell culture insert (Corning Incorporated) used in monolayer culture (FIG. 9(1)).

CYP3A4 [4] = test: CYP3A4 activity of ELCs, P450-Glo CYP3A4 assay (Example 3); format: cell-based, human; details: PD 3 μM in medium C for 10 days, PD(+) versus PD(−); Luciferin-IPA substrate, corrected by protein per well
Method: as §1

P-gp = test: Elimination of a humoral factor from medium K in ELC monolayer culture, P-gp activity (Example 9); format: cell-based, human; details: ELC monolayer (day 27 2D K), 6 days in medium K without the factor; digoxin substrate
Method: P-gp is an efflux transporter, and its activity was measured by allowing 1 μM digoxin to act through use of digoxin, [^3H (G)]-(PerkinElmer) and digoxin (Asahi Kasei Corporation) as substrate compounds, and allowing 100 μM verapamil to act as an inhibitor.

[5] = RA at each concentration (3, 10, 20, 30 μM) in medium B, DMSO-treated group = 1.0

## Cc1c[nH]c(-c2cnc(NCCNc3ccc(C#N)cn3)nc2-c2ccc(Cl)cc2Cl)n1 [CHIR, CHIR99021]
[1]; CHIR at 10 μM (of 3, 10, 20 μM) in medium B
  expression of CDX2: highest expression
[1]; CHIR at 10 μM in medium B
  expression of AFP: low expressions
  expression of PDX1: low expressions

## O=C1NC(=O)C(c2cnc3ccccn23)=C1c1cn2c3c(cc(F)cc13)CN(C(=O)N1CCCCC1)CC2 [LY, LY2090314]
[1]; LY at 20 nM (of 3, 10, 20, 30 nM) in medium B
  expression of CDX2: highest expression
[1]; LY at 20 nM in medium B
  expression of AFP (hepatic progenitor cell marker): low expressions
  expression of PDX1: low expressions

## O=C(NOC[C@H](O)CO)c1ccc(F)c(F)c1Nc1ccc(I)cc1F [PD, PD0325901]
[2]
  gene expression level of CYP3A4: clearly higher values
  gene expression level of MDR1: clearly higher values
CYP3A4 [3]
  CYP3A4 activity on elimination of the factor from medium K: greatly decreased
CYP3A4 [4]
  CYP3A4 activity: clearly higher value

## CC1=C(/C=C/C(C)=C/C=C/C(C)=C/C(=O)O)C(C)(C)CCC1 [RA, all-trans-Retinoic Acid]
[1]; [5]
  expression level of CDX2 (intestinal progenitor cell marker): high expression levels
  expression level of PDX1 (pancreatic progenitor cell marker): high expression levels

## NC(=O)c1ccc(-c2nc(-c3ccc4c(c3)OCO4)c(-c3ccccn3)[nH]2)cc1 [SB431542]
CYP3A4 [3]
  CYP3A4 activity on elimination of the factor from medium K: significantly increased

## C=C1/C(=C\C=C2/CCC[C@]3(C)[C@@H]([C@H](C)CCCC(C)(C)O)CC[C@@H]23)C[C@@H](O)C[C@@H]1O [Vitamin D3, 1α,25-Dihydroxyvitamin D3]
CYP3A4 [3]; ELC monolayer (day 27 2D K), 6 days in medium K without the factor
  CYP3A4 activity on elimination of the factor from medium K: greatly decreased

## EGF: Epidermal growth factor, component of medium K
CYP3A4 [3]
  CYP3A4 activity on elimination of the factor from medium K: significantly increased
P-gp
  P-gp activity on elimination of the factor from medium K: no influence
